From patent publication US8377938B2, “Phenoxypyridine derivative salts and crystals thereof, and process for preparing the same” (Eisai R&D Management Co., Ltd., priority 2007, dated 2013)

How the values were obtained:
[1] = test system: Human gastric cancer cells (MKN-45); test: Inhibitory activity against the proliferation of human gastric cancer cells (MKN-45); type: cell-based; conditions: 72 h, read-out: IC50, concentration necessary to inhibit the cell proliferation by 50%, MKN-45, 1% FBS RPMI1640, 3 days, Cell Counting Kit-8
Method: Pharmacological Test Example 2:Inhibitory Activity Against the Proliferation of Human Gastric Cancer Cells (MKN-45)
Human gastric cancer cells (MKN-45) were suspended in a 1% FBS-containing RPMI1640 medium (purchased from Sigma). The cell suspension (1×10^4 cells/ml) was added in a 96-well plate for cell culture (purchased from NUNC, Production No. 167008) at 0.1 ml/well, and then cultured in a 5% CO2 incubator (37° C.) overnight. After the culture, each well was supplied with 0.1 ml of a test substance diluted with a 1% FBS-containing RPMI1640 medium, followed by culturing in a 5% CO2 incubator (37° C.) for 3 days. After the culture, each well was supplied with 10 μl of Cell Counting Kit-8 (purchased from DOJINDO, Production No. 343-07623), followed by incubation in a 5% CO2 incubator (37° C.) for about 1.5 hrs. After the incubation, using the Plate Reader MTP-500 (Corona Electric), the absorbance of each well was determined at a measurement wavelength of 450 nm and a reference wavelength of 660 nm.

HGFR autophosphorylation = test: Inhibitory activity against the HGFR autophosphorylation using ELISA; type: cell-based; conditions: Homo sapiens, read-out: IC50, concentration necessary to inhibit HGFR autophosphorylation activity by 50%, MKN-45 cells, 1 hr treatment
Method: Pharmacological Test Example 3:Inhibitory Activity Against the HGFR Autophosphorylation Using ELISA
1. Preparation of Cell Extract
Human gastric cancer cells (MKN-45) were suspended in a 1% FBS-containing RPMI1640 medium (purchased from Sigma). The cell suspension (1×10^5 cells/ml) was put in a 96-well plate for cell culture (purchased from NUNC, Production No. 167008) at 0.1 ml/well, and then cultured in a 5% CO2 incubator (37° C.) overnight. After the culture, from each well was removed the supernatant solution, followed by adding 0.05 ml of a 1% FBS-containing RPMI1640 medium. […]
Each well of the plate prepared in 2. was washed three times with 200 μl of PBS, and supplied with 150 μl of 3% BSA/PBS, followed by incubating at room temperature for 2 hrs. […] Each well was supplied with 70 μl of 1 M phosphoric acid, and using the Plate Reader MTP-500 (Corona Electric), the absorbance of the well was instantly determined at a measurement wavelength of 450 nm. While defining the absorbance of a well supplied with the cell extract having no test substance as 100% HGFR autophosphorylation activity, and the absorbance, of a well supplied with 50 μl of the lysis buffer as 0% HGFR autophosphorylation activity, the HGFR autophosphorylation activity (%) was calculated for each well. […]

| IC50 [1] | IC50 (HGFR autophosphorylation) | SMILES |
| --- | --- | --- |
| 17 nM | 16 nM | CN1CCN(C2CCN(C(=O)Nc3cc(Oc4ccc(NC(=O)C5(C(=O)Nc6ccc(F)cc6)CC5)c(F)c4)ccn3)CC2)CC1 [compound 1, N-(2-fluoro-4-{[2-({[4-(4-methylpiperazin-1-yl)piperidin-1-yl]carbonyl}amino)pyridin-4-yl]oxy}phenyl)-N′-(4-fluorophenyl)cyclopropane-1,1-dicarboxyamide] |
| 5 nM | 8.4 nM | O=C(Nc1cc(Oc2cc(F)c(NC(=O)C3(C(=O)Nc4ccc(F)cc4)CC3)cc2F)ccn1)N1CC(O)C1 [compound 2, N-{2,5-difluoro-4-[(2-{[(3-hydroxyazetidin-1-yl)carbonyl]amino}pyridin-4-yl)oxy]phenyl}-N′-(4-fluorophenyl)cyclopropane-1,1-dicarboxyamide] |
